Source: publication PMC3599939 (BMC Infectious Diseases, 2013)

Test system: influenza virus neuraminidase (NA)
Type: biochemical

SMILES: CCOC(=O)C1=C[C@@H](OC(CC)CC)[C@H](NC(C)=O)[C@@H](N)C1 [Oseltamivir, oseltamivir]
- Phenotype (S/R): R and S
- sensitivity of viruses to Oseltamivir: sensitive
